This assay has as its target PI3Kα (Homo sapiens, UniProt P42336, H1047R). Description: ADP-Glo IC50 assay. It is filed as biochemical. The settings on record: class symbols; key not given.

Some results are limits rather than exact numbers.

Sequence of PI3Kα (P42336 whole entry H1047R): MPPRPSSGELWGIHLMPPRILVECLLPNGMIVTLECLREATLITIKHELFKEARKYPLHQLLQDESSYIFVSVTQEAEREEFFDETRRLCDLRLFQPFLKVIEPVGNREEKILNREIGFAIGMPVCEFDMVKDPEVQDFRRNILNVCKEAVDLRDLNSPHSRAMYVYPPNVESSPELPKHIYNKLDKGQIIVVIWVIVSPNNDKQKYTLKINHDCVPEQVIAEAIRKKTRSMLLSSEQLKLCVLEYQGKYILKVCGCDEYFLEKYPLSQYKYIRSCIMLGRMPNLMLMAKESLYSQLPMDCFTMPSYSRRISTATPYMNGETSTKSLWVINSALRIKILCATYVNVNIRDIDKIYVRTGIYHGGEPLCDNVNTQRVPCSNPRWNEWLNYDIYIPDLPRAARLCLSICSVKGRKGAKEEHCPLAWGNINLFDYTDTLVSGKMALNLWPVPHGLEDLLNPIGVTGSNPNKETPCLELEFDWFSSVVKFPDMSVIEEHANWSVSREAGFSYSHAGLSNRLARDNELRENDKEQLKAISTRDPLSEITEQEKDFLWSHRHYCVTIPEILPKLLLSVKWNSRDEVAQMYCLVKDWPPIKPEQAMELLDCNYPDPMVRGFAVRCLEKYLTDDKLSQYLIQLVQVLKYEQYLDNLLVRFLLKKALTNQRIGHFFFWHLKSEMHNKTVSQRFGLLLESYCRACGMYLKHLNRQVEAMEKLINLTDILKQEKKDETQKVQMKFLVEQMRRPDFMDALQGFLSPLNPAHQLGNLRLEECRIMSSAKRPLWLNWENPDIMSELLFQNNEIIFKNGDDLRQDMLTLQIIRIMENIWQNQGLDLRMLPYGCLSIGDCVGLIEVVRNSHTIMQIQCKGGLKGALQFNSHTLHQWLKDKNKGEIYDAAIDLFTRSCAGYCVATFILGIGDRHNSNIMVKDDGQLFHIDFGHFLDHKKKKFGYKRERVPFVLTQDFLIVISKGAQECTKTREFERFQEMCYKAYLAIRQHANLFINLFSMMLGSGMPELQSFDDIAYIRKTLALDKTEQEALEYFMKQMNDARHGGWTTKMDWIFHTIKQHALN
Sequence of PI3Kα (P27986 whole entry partner): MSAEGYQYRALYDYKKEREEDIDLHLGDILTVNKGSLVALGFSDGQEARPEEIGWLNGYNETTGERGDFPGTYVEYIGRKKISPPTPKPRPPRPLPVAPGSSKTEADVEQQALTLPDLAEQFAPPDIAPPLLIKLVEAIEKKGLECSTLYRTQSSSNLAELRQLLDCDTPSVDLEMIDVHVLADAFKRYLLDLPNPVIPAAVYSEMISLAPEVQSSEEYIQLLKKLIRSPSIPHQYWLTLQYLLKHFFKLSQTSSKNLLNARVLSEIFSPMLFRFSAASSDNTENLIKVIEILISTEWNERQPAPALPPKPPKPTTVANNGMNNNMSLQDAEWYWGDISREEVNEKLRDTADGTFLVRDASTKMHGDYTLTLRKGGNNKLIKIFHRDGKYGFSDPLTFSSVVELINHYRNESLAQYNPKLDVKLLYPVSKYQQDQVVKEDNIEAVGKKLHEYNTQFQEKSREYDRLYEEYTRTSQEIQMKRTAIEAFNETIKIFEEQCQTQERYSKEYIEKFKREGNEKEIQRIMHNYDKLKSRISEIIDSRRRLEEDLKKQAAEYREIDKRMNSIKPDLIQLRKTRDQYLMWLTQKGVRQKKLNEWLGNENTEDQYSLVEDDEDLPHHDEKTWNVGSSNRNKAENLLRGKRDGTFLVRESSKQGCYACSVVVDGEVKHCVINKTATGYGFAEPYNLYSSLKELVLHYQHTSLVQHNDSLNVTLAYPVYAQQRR

`Cc1ccccc1Nc1ncc(C(=O)NCCOCCOCCOCCOCCC(=O)N[C@H](C(=O)N2C[C@H](O)C[C@H]2C(=O)NCc2ccc(-c3scnc3C)cc2)C(C)(C)C)cc1NC(=O)c1csc2ccccc12` [Example I-14] registered an IC50 of 500 to 1000 nM. The value for `Cc1ccccc1Nc1ncc(C(=O)NCCCCCCC(=O)N[C@H](C(=O)N2C[C@H](O)C[C@H]2C(=O)NCc2ccc(-c3scnc3C)cc2)C(C)(C)C)cc1NC(=O)c1csc2ccccc12` [Example I-15] was 100 to 500 nM; that for `Cc1ccccc1Nc1ncc(C(=O)NCCCCCCCCNc2ccc3c(c2)C(=O)N(C2CCC(=O)NC2=O)C3=O)cc1NC(=O)c1csc2ccccc12` (stereo not shown) [Example I-16] was 100 to 500 nM; that for `Cc1ccccc1Nc1ncc(C(=O)NCCCCCCCC(=O)N[C@H](C(=O)N2C[C@H](O)C[C@H]2C(=O)NCc2ccc(-c3scnc3C)cc2)C(C)(C)C)cc1NC(=O)c1csc2ccccc12` [Example I-18] was 100 to 500 nM. For `Cc1ccccc1Nc1ncc(C(=O)NCCCCCCC(=O)NCc2ccc3c(c2)CN(C2CCC(=O)NC2=O)C3=O)cc1NC(=O)c1csc2ccccc12` (stereo not shown) [Example I-19], the half-inhibitory concentration (IC50) was 100 to 500 nM.

Compound `Cc1ccccc1Nc1ncc(C(=O)NCCCCCCCCNC(=O)c2ccc3c(c2)CN(C2CCC(=O)NC2=O)C3=O)cc1NC(=O)c1csc2ccccc12` (stereo not shown) [Example I-21] yielded an IC50 of 100 to 500 nM. Under `Cc1ccccc1Nc1ncc(C(=O)NCCCCCCC(=O)N[C@H](C(=O)N2C[C@H](O)C[C@H]2C(=O)N[C@@H](C)c2ccc(-c3scnc3C)cc2)C(C)(C)C)cc1NC(=O)c1csc2ccccc12` [Example I-23] stands 100 to 500 nM; under `Cc1ccccc1Nc1ncc(C(=O)NCCOCCOCCOCCC(=O)NCc2ccc3c(c2)CN(C2CCC(=O)NC2=O)C3=O)cc1NC(=O)c1csc2ccccc12` (stereo not shown) [Example I-26], 1000 to 10000 nM. The value for `COC(=O)CCCCCCCCCNC(=O)c1cnc(Nc2ccccc2C)c(NC(=O)c2csc3ccccc23)c1` [Example I-27] was 500 to 1000 nM; that for `Cc1ccccc1Nc1ncc(C(=O)NCCOCCOCCC(=O)NCc2ccc3c(c2)CN(C2CCC(=O)NC2=O)C3=O)cc1NC(=O)c1csc2ccccc12` (stereo not shown) [Example I-30] was 1000 to 10000 nM. In turn, `Cc1ccccc1Nc1ncc(C(=O)NCCOCCOCCOCCOCCOCCOCCC(=O)N[C@H](C(=O)N2C[C@H](O)C[C@H]2C(=O)NCc2ccc(-c3scnc3C)cc2)C(C)(C)C)cc1NC(=O)c1csc2ccccc12` [Example I-32] returned an IC50 of 1000 to 10000 nM.

On to `Cc1ccccc1Nc1ncc(C(=O)NCCOCCOCCOCCOCCOCCOCCC(=O)N[C@H](C(=O)N2C[C@H](O)C[C@H]2C(=O)N[C@@H](C)c2ccc(-c3scnc3C)cc2)C(C)(C)C)cc1NC(=O)c1csc2ccccc12` [Example I-33], for which the 50% inhibitory concentration (IC50) was in the range of 1000 to 10000 nM. Under `O=C1CCC(N2Cc3cc(C(=O)NCCCCCCCCCNC(=O)c4cnc(Nc5cc(F)ccc5Cl)c(NC(=O)c5csc6ccccc56)c4)ccc3C2=O)C(=O)N1` (stereo not shown) [Example I-34] stands 500 to 1000 nM; under `Cc1ccccc1Nc1ncc(C(=O)NCCOCCOCCOCCC(=O)N[C@H](C(=O)N2C[C@H](O)C[C@H]2C(=O)NCc2ccc(-c3scnc3C)cc2)C(C)(C)C)cc1NC(=O)c1csc2ccccc12` [Example I-35], 1000 to 10000 nM; under `Cc1ccccc1Nc1ncc(C(=O)NCCOCCOCCC(=O)N[C@H](C(=O)N2C[C@H](O)C[C@H]2C(=O)NCc2ccc(-c3scnc3C)cc2)C(C)(C)C)cc1NC(=O)c1csc2ccccc12` [Example I-37], 1000 to 10000 nM. `Cc1ccccc1Nc1ncc(C(=O)NCCCCCC(=O)N[C@H](C(=O)N2C[C@H](O)C[C@H]2C(=O)NCc2ccc(-c3scnc3C)cc2)C(C)(C)C)cc1NC(=O)c1csc2ccccc12` [Example I-38] displayed an IC50 of 100 to 500 nM. For `Cc1ccccc1Nc1ncc(C(=O)NCCOCCOCCC(=O)N[C@H](C(=O)N2C[C@H](O)C[C@H]2C(=O)N[C@@H](C)c2ccc(-c3scnc3C)cc2)C(C)(C)C)cc1NC(=O)c1csc2ccccc12` [Example I-40], the IC50 was in the range of 1000 to 10000 nM.

In turn, `O=C(CCCCCCCNC(=O)c1cnc(Nc2cc(F)ccc2Cl)c(NC(=O)c2csc3ccccc23)c1)NCc1ccc2c(c1)CN(C1CCC(=O)NC1=O)C2=O` (stereo not shown) [Example I-41] displayed an IC50 of 100 to 500 nM. `Cc1ccccc1Nc1ncc(C(=O)NCCCCCCCNc2cccc3c2C(=O)N(C2CCC(=O)NC2=O)C3=O)cc1NC(=O)c1csc2ccccc12` (stereo not shown) [Example I-42] showed a half-inhibitory concentration (IC50) of 100 to 500 nM. The value for `Cc1ccccc1Nc1ncc(C(=O)NCCCCC(=O)N[C@H](C(=O)N2C[C@H](O)C[C@H]2C(=O)NCc2ccc(-c3scnc3C)cc2)C(C)(C)C)cc1NC(=O)c1csc2ccccc12` [Example I-43] was 500 to 1000 nM. Under `Cc1ccccc1Nc1ncc(C(=O)NCCCC#Cc2ccc3c(c2)CN(C2CCC(=O)NC2=O)C3=O)cc1NC(=O)c1csc2ccccc12` (stereo not shown) [Example I-44] stands 100 to 500 nM; under `Cc1ncsc1-c1ccc(CNC(=O)[C@@H]2C[C@@H](O)CN2C(=O)[C@@H](NC(=O)CCCCCCCCCNC(=O)c2cnc(Nc3cc(F)ccc3Cl)c(NC(=O)c3csc4ccccc34)c2)C(C)(C)C)cc1` [Example I-45], 100 to 500 nM.

As to `Cc1ccccc1Nc1ncc(C(=O)NCCOCCOCCOCCOCCC(=O)NCc2ccc3c(c2)CN(C2CCC(=O)NC2=O)C3=O)cc1NC(=O)c1csc2ccccc12` (stereo not shown) [Example I-47], the IC50 lay within 1000 to 10000 nM. Under `Cc1ccccc1Nc1ncc(C(=O)NCCCC(=O)N[C@H](C(=O)N2C[C@H](O)C[C@H]2C(=O)NCc2ccc(-c3scnc3C)cc2)C(C)(C)C)cc1NC(=O)c1csc2ccccc12` [Example I-48] stands 500 to 1000 nM. Under `Cc1ccccc1Nc1ncc(C(=O)NCCCCNc2cccc3c2C(=O)N(C2CCC(=O)NC2=O)C3=O)cc1NC(=O)c1csc2ccccc12` (stereo not shown) [Example I-49] stands 100 to 500 nM; under `Cc1ccccc1Nc1ncc(C(=O)NCCCNc2cccc3c2C(=O)N(C2CCC(=O)NC2=O)C3=O)cc1NC(=O)c1csc2ccccc12` (stereo not shown) [Example I-51], 100 to 500 nM; under `Cc1ccccc1Nc1ncc(C(=O)NCCOCCOCCOCCOCCOCCOCCC(=O)NCc2ccc3c(c2)CN(C2CCC(=O)NC2=O)C3=O)cc1NC(=O)c1csc2ccccc12` (stereo not shown) [Example I-52], 10000 to 100000 nM. With `Cc1ccccc1Nc1ncc(C(=O)Nc2ccc(N3CCN(c4ccc5c(c4)C(=O)N(C4CCC(=O)NC4=O)C5=O)CC3)cc2)cc1NC(=O)c1csc2ccccc12` (stereo not shown) [Example I-55], the IC50 lay in the range of 100 to 500 nM. The value for `Cc1ccccc1Nc1ncc(C(=O)NCCCNc2ccc3c(c2)C(=O)N(C2CCC(=O)NC2=O)C3=O)cc1NC(=O)c1csc2ccccc12` (stereo not shown) [Example I-56] was less than 100 nM; that for `Cc1ccccc1Nc1ncc(C(=O)NCCCC(=O)N[C@H](C(=O)N2C[C@H](O)C[C@H]2C(=O)N[C@@H](C)c2ccc(-c3scnc3C)cc2)C(C)(C)C)cc1NC(=O)c1csc2ccccc12` [Example I-57] was 500 to 1000 nM. The value for `Cc1ccccc1Nc1ncc(C(=O)NCCCCCC(=O)NCc2ccc3c(c2)C(=O)N(C2CCC(=O)NC2=O)C3)cc1NC(=O)c1csc2ccccc12` (stereo not shown) [Example I-58] was 100 to 500 nM; that for `Cc1ccccc1Nc1ncc(C(=O)NCCCCCCNc2cccc3c2C(=O)N(C2CCC(=O)NC2=O)C3=O)cc1NC(=O)c1csc2ccccc12` (stereo not shown) [Example I-59] was 500 to 1000 nM; that for `Cc1ccccc1Nc1ncc(C(=O)NCCCNC(=O)c2ccc3c(c2)CN(C2CCC(=O)NC2=O)C3=O)cc1NC(=O)c1csc2ccccc12` (stereo not shown) [Example I-61] was 100 to 500 nM. The value for `O=C1CCC(N2C(=O)c3ccc(NCCCCCNC(=O)c4cnc(Nc5cc(F)ccc5Cl)c(NC(=O)c5csc6ccccc56)c4)cc3C2=O)C(=O)N1` (stereo not shown) [Example I-63] was 100 to 500 nM; that for `Cc1ccccc1Nc1ncc(C(=O)NCCc2ccc(Nc3ccc4c(c3)C(=O)N(C3CCC(=O)NC3=O)C4=O)cc2)cc1NC(=O)c1csc2ccccc12` (stereo not shown) [Example I-64] was 100 to 500 nM.

On to `Cc1ccccc1Nc1ncc(C(=O)NCCCCC(=O)N[C@H](C(=O)N2C[C@H](O)C[C@H]2C(=O)N[C@@H](C)c2ccc(-c3scnc3C)cc2)C(C)(C)C)cc1NC(=O)c1csc2ccccc12` [Example I-65], for which the 50% inhibitory concentration (IC50) lay within 500 to 1000 nM. The value for `O=C1CCC(N2Cc3cc(C(=O)NCCCCCCCNC(=O)c4cnc(Nc5cc(F)ccc5Cl)c(NC(=O)c5csc6ccccc56)c4)ccc3C2=O)C(=O)N1` (stereo not shown) [Example I-66] was 100 to 500 nM; that for `NC(=O)CCCCCCCCCNC(=O)c1cnc(Nc2cc(F)ccc2Cl)c(NC(=O)c2csc3ccccc23)c1` [Example I-68] was 100 to 500 nM. Under `O=C1CCC(N2C(=O)c3ccc(NCCCCCCCNC(=O)c4cnc(Nc5cc(F)ccc5Cl)c(NC(=O)c5csc6ccccc56)c4)cc3C2=O)C(=O)N1` (stereo not shown) [Example I-69] stands 100 to 500 nM. `O=C1CCC(N2Cc3cc(C(=O)NCCCCCCCCCNC(=O)c4cc(NC(=O)c5cc(F)cc(C(F)(F)F)c5)c5c(c4)C(=O)N[C@@H]5c4cc(F)ccc4Cl)ccc3C2=O)C(=O)N1` (stereo partly shown) [Example I-70] registered an IC50 of 1000 to 10000 nM. Under `Cc1ncsc1-c1ccc(CNC(=O)[C@@H]2C[C@@H](O)CN2C(=O)[C@@H](NC(=O)CCCCCCCCCNC(=O)c2cc(NC(=O)c3cc(F)cc(C(F)(F)F)c3)c3c(c2)C(=O)N[C@H]3c2cc(F)ccc2Cl)C(C)(C)C)cc1` [Example I-71] stands 500 to 1000 nM; under `Cc1ncsc1-c1ccc(CNC(=O)[C@@H]2C[C@@H](O)CN2C(=O)[C@@H](NC(=O)CCCCCCCCCNC(=O)c2cc(NC(=O)c3cc(F)cc(C(F)(F)F)c3)c3c(c2)C(=O)N[C@@H]3c2cc(F)ccc2Cl)C(C)(C)C)cc1` [Example I-73], less than 100 nM. The value for `Cc1ccccc1Nc1ncc(C(=O)NCCCC[C@H](N)C(=O)N[C@H](C(=O)N2C[C@H](O)C[C@H]2C(=O)NCc2ccc(-c3scnc3C)cc2)C(C)(C)C)cc1NC(=O)c1csc2ccccc12` [Example I-74] was 1000 to 10000 nM; that for `O=C1CCC(N2C(=O)c3ccc(NCCCCCNC(=O)c4cc(NC(=O)c5cc(F)cc(C(F)(F)F)c5)c5c(c4)C(=O)N[C@@H]5c4cc(F)ccc4Cl)cc3C2=O)C(=O)N1` (stereo partly shown) [Example I-75] was 500 to 1000 nM; that for `O=C(O)CCCCCCCCCNC(=O)c1cc(NC(=O)c2cc(F)cc(C(F)(F)F)c2)c2c(c1)C(=O)N[C@@H]2c1cc(F)ccc1Cl` [Example I-76] was less than 100 nM. Under `O=C1CCC(N2Cc3cc(C(=O)NCCCCCCCNC(=O)c4cc(NC(=O)c5cc(F)cc(C(F)(F)F)c5)c5c(c4)C(=O)N[C@H]5c4cc(F)ccc4Cl)ccc3C2=O)C(=O)N1` (stereo partly shown) [Example I-77] stands less than 100 nM.
